Reference: paper PMC7191558, “Use of BODIPY-Labeled ATP Analogues in the Development and Validation of a Fluorescence Polarization-Based Assay for Screening of Kinase Inhibitors” (ACS Omega, 2020)

Target: T1, Protein Kinase A catalytic subunit (PKA) (Bos taurus, UniProt P00517)
T1 construct: gene PRKACA; catalytic subunit (from bovine heart, Merck)
Assay: fluorescence polarization competition with BODIPY FL ATP-γ-S
Format: binding

For `CC1CNCCN1S(=O)(=O)c1cccc2cnccc12` (stereo not shown) [H7], the IC50 was ~1130 µM.
